Reference: the NIST ThermoML archive (doi:10.1016/j.jct.2015.03.001)
± gives the expanded uncertainty stated by the source.

Tests used:
[1] = relative permittivity at various frequencies (dimensionless); xn = mol fraction of the nth substance listed; settings: 99 kPa, Liquid, Frequency=2 MHz, Parallel plate capacitor
[2] = refractive index (Na D-line) (dimensionless); xn = mol fraction of the nth substance listed; settings: 99 kPa, Liquid, Abbe refractometer

CCCCCl [1-chlorobutane] + CCCCCCC
Settings | refractive index, 283.15 K | refractive index, 298.15 K | refractive index, 313.15 K | relative permittivity, 283.15 K | relative permittivity, 298.15 K | relative permittivity, 313.15 K
[1], x2 = 0 | – | – | – | 7.552 ± 0.076 | 7.157 ± 0.072 | 6.757 ± 0.068
[1], x2 = 0.0484 | – | – | – | 7.201 ± 0.072 | 6.84 ± 0.068 | 6.47 ± 0.065
[1], x2 = 0.101 | – | – | – | 6.808 ± 0.068 | 6.475 ± 0.065 | 6.132 ± 0.061
[1], x2 = 0.1965 | – | – | – | 6.051 ± 0.061 | 5.77 ± 0.058 | 5.492 ± 0.055
[1], x2 = 0.2708 | – | – | – | 5.486 ± 0.055 | 5.243 ± 0.052 | 5.005 ± 0.05
[1], x2 = 0.4005 | – | – | – | 4.601 ± 0.046 | 4.417 ± 0.044 | 4.237 ± 0.042
[1], x2 = 0.5038 | – | – | – | 3.999 ± 0.04 | 3.855 ± 0.039 | 3.715 ± 0.037
[1], x2 = 0.5995 | – | – | – | 3.52 ± 0.035 | 3.404 ± 0.034 | 3.299 ± 0.033
[1], x2 = 0.6978 | – | – | – | 3.089 ± 0.031 | 3.001 ± 0.03 | 2.921 ± 0.029
[1], x2 = 0.805 | – | – | – | 2.665 ± 0.027 | 2.608 ± 0.026 | 2.545 ± 0.025
[1], x2 = 0.897 | – | – | – | 2.327 ± 0.023 | 2.287 ± 0.023 | 2.247 ± 0.022
[1], x2 = 0.9475 | – | – | – | 2.138 ± 0.021 | 2.112 ± 0.021 | 2.079 ± 0.021
[2], x2 = 0 | 1.4075 ± 0.00031 | 1.3995 ± 0.00031 | 1.39131 ± 0.00031 | – | – | –
[2], x2 = 0.0503 | 1.40636 ± 0.00031 | 1.39837 ± 0.00031 | 1.39019 ± 0.00031 | – | – | –
[2], x2 = 0.1023 | 1.40522 ± 0.00031 | 1.39724 ± 0.00031 | 1.38907 ± 0.00031 | – | – | –
[2], x2 = 0.201 | 1.40318 ± 0.00031 | 1.39522 ± 0.00031 | 1.38708 ± 0.00031 | – | – | –
[2], x2 = 0.3012 | 1.40132 ± 0.00031 | 1.39338 ± 0.00031 | 1.38527 ± 0.00031 | – | – | –
[2], x2 = 0.4003 | 1.39966 ± 0.00031 | 1.39175 ± 0.00031 | 1.38367 ± 0.00031 | – | – | –
[2], x2 = 0.4985 | 1.3982 ± 0.00031 | 1.39033 ± 0.00031 | 1.38227 ± 0.00031 | – | – | –
[2], x2 = 0.5963 | 1.39694 ± 0.00031 | 1.38909 ± 0.00031 | 1.38108 ± 0.00031 | – | – | –
[2], x2 = 0.7037 | 1.39573 ± 0.00031 | 1.38793 ± 0.00031 | 1.37996 ± 0.00031 | – | – | –
[2], x2 = 0.82 | 1.39458 ± 0.00031 | 1.38682 ± 0.00031 | 1.3789 ± 0.00031 | – | – | –
[2], x2 = 0.9094 | 1.39373 ± 0.00031 | 1.386 ± 0.00031 | 1.37811 ± 0.00031 | – | – | –
[2], x2 = 0.949 | 1.39337 ± 0.00031 | 1.38565 ± 0.00031 | 1.37778 ± 0.00031 | – | – | –

CC(C)(C)Cl [2-chloro-2-methylpropane] + CCCCCC
Settings | refractive index, 283.15 K | refractive index, 298.15 K | refractive index, 313.15 K | relative permittivity, 283.15 K | relative permittivity, 298.15 K | relative permittivity, 313.15 K
[1], x2 = 0 | – | – | – | 10.429 ± 0.1 | 9.67 ± 0.097 | 8.952 ± 0.09
[1], x2 = 0.0467 | – | – | – | 9.841 ± 0.098 | 9.132 ± 0.091 | 8.468 ± 0.085
[1], x2 = 0.099 | – | – | – | 9.191 ± 0.092 | 8.543 ± 0.085 | 7.946 ± 0.079
[1], x2 = 0.2084 | – | – | – | 7.892 ± 0.079 | 7.37 ± 0.074 | 6.883 ± 0.069
[1], x2 = 0.2972 | – | – | – | 6.892 ± 0.069 | 6.468 ± 0.065 | 6.073 ± 0.061
[1], x2 = 0.399 | – | – | – | 5.897 ± 0.059 | 5.552 ± 0.056 | 5.239 ± 0.052
[1], x2 = 0.4982 | – | – | – | 5.016 ± 0.05 | 4.749 ± 0.048 | 4.514 ± 0.045
[1], x2 = 0.6015 | – | – | – | 4.212 ± 0.042 | 4.01 ± 0.04 | 3.842 ± 0.038
[1], x2 = 0.7009 | – | – | – | 3.543 ± 0.035 | 3.398 ± 0.034 | 3.283 ± 0.033
[1], x2 = 0.8046 | – | – | – | 2.928 ± 0.029 | 2.833 ± 0.028 | 2.749 ± 0.028
[1], x2 = 0.8999 | – | – | – | 2.417 ± 0.024 | 2.362 ± 0.024 | 2.308 ± 0.023
[1], x2 = 0.9502 | – | – | – | 2.149 ± 0.022 | 2.116 ± 0.021 | 2.08 ± 0.021
[2], x2 = 0 | 1.39115 ± 0.00031 | 1.38225 ± 0.00031 | 1.37312 ± 0.00031 | – | – | –
[2], x2 = 0.048 | 1.39005 ± 0.00031 | 1.38118 ± 0.00031 | 1.37209 ± 0.00031 | – | – | –
[2], x2 = 0.0978 | 1.38908 ± 0.00031 | 1.38022 ± 0.00031 | 1.37118 ± 0.00031 | – | – | –
[2], x2 = 0.1998 | 1.38741 ± 0.00031 | 1.3786 ± 0.00031 | 1.36961 ± 0.00031 | – | – | –
[2], x2 = 0.3018 | 1.38592 ± 0.00031 | 1.37722 ± 0.00031 | 1.36829 ± 0.00031 | – | – | –
[2], x2 = 0.405 | 1.38463 ± 0.00031 | 1.37598 ± 0.00031 | 1.36716 ± 0.00031 | – | – | –
[2], x2 = 0.5059 | 1.38354 ± 0.00031 | 1.37491 ± 0.00031 | 1.36616 ± 0.00031 | – | – | –
[2], x2 = 0.6043 | 1.38258 ± 0.00031 | 1.37407 ± 0.00031 | 1.3654 ± 0.00031 | – | – | –
[2], x2 = 0.7077 | 1.38181 ± 0.00031 | 1.37335 ± 0.00031 | 1.36477 ± 0.00031 | – | – | –
[2], x2 = 0.806 | 1.38122 ± 0.00031 | 1.37282 ± 0.00031 | 1.36433 ± 0.00031 | – | – | –
[2], x2 = 0.9095 | 1.38081 ± 0.00031 | 1.37249 ± 0.00031 | 1.36409 ± 0.00031 | – | – | –
[2], x2 = 0.95 | 1.38066 ± 0.00031 | 1.37236 ± 0.00031 | 1.36401 ± 0.00031 | – | – | –
